The values that follow come from patent US12577247B2 (BUGWORKS RESEARCH, INC., priority 2021, dated 2026).

One data set addresses T1, A2B receptor (Homo sapiens, UniProt P29275).
T1 sequence (P29275 1-332): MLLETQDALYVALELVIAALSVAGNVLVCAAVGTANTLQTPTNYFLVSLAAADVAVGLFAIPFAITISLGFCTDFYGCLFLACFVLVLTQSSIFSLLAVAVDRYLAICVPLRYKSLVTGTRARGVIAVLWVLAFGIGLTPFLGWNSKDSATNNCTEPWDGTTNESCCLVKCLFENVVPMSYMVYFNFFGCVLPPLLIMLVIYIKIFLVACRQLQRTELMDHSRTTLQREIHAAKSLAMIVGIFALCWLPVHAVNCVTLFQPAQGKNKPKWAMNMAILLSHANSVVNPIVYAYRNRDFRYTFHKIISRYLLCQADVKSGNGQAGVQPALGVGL
Put plainly: A2bR antagonism IC50, cAMP TR-FRET (Lance Ultra) in HEK-293 cells, NECA as agonist. In kind it is cell-based. On the set-up: host or cells: HEK-293. To be noted: HEK-293 cells expressing A2B receptor; agonist NECA 30 nM (EC90); inhibition of cAMP.

Another data set addresses T2, hERG potassium channel (Homo sapiens, UniProt Q12809).
T2 construct: a Chinese Hamster Ovary cell line stably expressing the full-length hERG potassium channel; expressed in transfected cells; host or cells: Chinese Hamster Ovary cell line
Put plainly: hERG inhibition assay, Qpatch HTX automated electrophysiology. Conditions: CHO cell line stably expressing hERG; whole-cell patch clamp; room temperature. Type of data set: cell-based. The procedure:
The representative compounds of formula I were tested for inhibition of the human ether a go-go related gene (hERG) K+ channel using Qpatch HTX automated electrophysiology. 6-Point concentration-response curves were generated using three-fold serial dilutions from a maximum final test concentration of […] and the results are presented in Table 3.
Compounds were solubilised to 100 mM in DMSO before dilution in HBPS to 100 μM. […] Electrophysiological recordings were made from a Chinese Hamster Ovary cell line stably expressing the full-length hERG potassium channel. Single cell ionic currents were measured in whole-cell patch clamp configuration at room temperature (21-23° C.) using the Qpatch HTX platform (Sophion). Intracellular solution contained (mM): 120 KF, 20 KCl, 10 EGTA, 10 HEPES and was buffered to pH 7.3. […] Cells were clamped at a holding potential of −80 mV. Cells were stepped to +20 mV for 2 s then −40 mV for 3 s before returning to the holding potential. This sweep was repeated 10 times at 10 s intervals. hERG currents were measured from the tail step and referenced to the holding current. Compounds were then incubated for 2 minutes prior to a second measurement of ion channel current using an identical pulse train.

Data set [1] in a line: Plasma protein binding, equilibrium dialysis, human. Type of data set: in vitro ADME. Conditions: plasma (10% plasma, extrapolated to 100% plasma), 18 hours at 37° C. The procedure: Protein binding is measured using the equilibrium dialysis technique. Compound is added to 10% plasma giving a concentration of 10 μM and dialysed with isotonic buffer for 18 hours at 37° C. The plasma and buffer solutions are analysed using generic LC UV/MS and the first apparent binding constant for the compound derived. The binding constant is then used to determine the % free in 100% plasma
The percentage of plasma bound/unbound fraction preparation was calculated as follows
[formula] [formula] where, • Tc=Total plasma concentration was determined by the calculated concentration on the plasma side of the chamber • Fc=[…] was determined by the calculated concentration on the buffer side of the chamber • To=Total compound concentration determined before analysis.

Data set [2] is described as follows: Pharmacokinetic study in rats. To be noted: for Vd / clearance / half-life / Cmax / Tmax / bioavailability: male, Sprague-Dawley, plasma; for Vd: read-out: Vss; for Cmax / Tmax: p.o; for Cmax: read-out: Cmax (head Co*/); for Tmax: read-out: Tmax (head Tma); for bioavailability: rat. Type of data set: in vivo, male Sprague-Dawley (SD) rats. The procedure: Intravenous (i.v) and Oral formulations for pharmacokinetic (PK) studies was formulated in different vehicles and excipients to achieve the desirable solubility for intravenous and Oral routes of administration.
Appropriate amount of the test compound was weighed and dissolved in required volume of the vehicles, followed by vertexing for a few seconds to dissolve the compound. Then the solution (or) suspension was sonicated at room temperature for 5 minutes to obtain a visually clear solution and or homogenous suspension. All the formulations were prepared freshly at room temperature before dosing.
The rodent pharmacokinetic studies were carried out in male Sprague-Dawley (SD) rats (8-12 weeks of age, weighing 280±20 g at the time of dosing) and CD1 mice (8-12 weeks of age, weighing 30-35 g body weight at the time of dosing) to estimate the plasma clearance, volume of distribution and terminal half-life, area under curve (AUC) and peak plasma concentration (Cmax) and time of peak plasma concentration (Tmax) following intravenous and oral routes of administration. The detailed experimental design is described in the Table 8 below.
Rats were anaesthetized by Isoflurane anaesthesia. The jugular and femoral veins of rat were cannulated, and the study was performed 48 h post cannulation. At each time point about 100 μL, of rat blood was collected from the jugular vein into a labelled microfuge tube containing 200 mM K2EDTA solution (20 μL, per mL of blood) and equivalent volume of heparinized saline was replaced following sample collection. Similarly, 25 μL, of mice blood was collected from the saphenous vein into a labelled microfuge tube containing 200 mM K2EDTA solution
Serial blood sampling method was used for blood collection. Blood samples were collected at pre-dose, 0.25 h, 0.5, 1, 2, 4, 6, 8 and 24-hours post dose. The blood samples were processed to obtain the plasma samples within 30 min of scheduled sampling time. All plasma samples were stored −70° C. until bioanalysis.
Plasma samples were analysed for a fit-for purpose LC-MS/MS method with a lower limit of quantification. The pharmacokinetic parameters were calculated using the non-compartmental analysis tool of validated Phoenix® WinNonlin® software (Certara, USA version 8.4) with linear up and log down method for estimating AUC.
All animals in intravenous (IV bolus) group were under fed state and animals in oral groups were fasted overnight (min 12 hr) before dose administration and food was provided 4 h post dose administration. All animals were received water ad libitum during the study period. The mean (±SD) pharmacokinetic parameters of Example 13, Example 122b & Example 39 following IV bolus and Oral dose administration in Mice/Rat and Dog is provided in Table-9.

The target in the next data set is T3, A2A receptor (Homo sapiens, UniProt P29274).
T3 construct: host or cells: HEK-293
Put plainly: A2aR antagonism IC50, cAMP TR-FRET (Lance Ultra) in HEK-293 cells, NECA as agonist.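 Note: compounds tested from 10 µM down to 0.08 nM in buffer with Rolipram at room temperature, TR-FRET cAMP signal read 1 h after adding Eu-cAMP tracer and ULight anti-cAMP.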 To be noted: A2AR IC50 (nM) (@5 nM NECA), HEK-293 cells expressing A2A receptor; agonist NECA 5 nM (EC90); inhibition of cAMP. Type of data set: cell-based.

Setting [3] is: Rat, IV bolus, Table 6, read-out: T1/2 (IV bolus) (converted).
Where [4] appears, read: oral, Rat, Table 6, read-out: % F.
The mark [5] stands for this setting: oral, Rat, oral vs IV bolus, doses per compound, read-out: % F (bioavailability).

Like-named read-outs stand apart in the source and are kept apart here.

T2 sequence (Q12809 whole entry): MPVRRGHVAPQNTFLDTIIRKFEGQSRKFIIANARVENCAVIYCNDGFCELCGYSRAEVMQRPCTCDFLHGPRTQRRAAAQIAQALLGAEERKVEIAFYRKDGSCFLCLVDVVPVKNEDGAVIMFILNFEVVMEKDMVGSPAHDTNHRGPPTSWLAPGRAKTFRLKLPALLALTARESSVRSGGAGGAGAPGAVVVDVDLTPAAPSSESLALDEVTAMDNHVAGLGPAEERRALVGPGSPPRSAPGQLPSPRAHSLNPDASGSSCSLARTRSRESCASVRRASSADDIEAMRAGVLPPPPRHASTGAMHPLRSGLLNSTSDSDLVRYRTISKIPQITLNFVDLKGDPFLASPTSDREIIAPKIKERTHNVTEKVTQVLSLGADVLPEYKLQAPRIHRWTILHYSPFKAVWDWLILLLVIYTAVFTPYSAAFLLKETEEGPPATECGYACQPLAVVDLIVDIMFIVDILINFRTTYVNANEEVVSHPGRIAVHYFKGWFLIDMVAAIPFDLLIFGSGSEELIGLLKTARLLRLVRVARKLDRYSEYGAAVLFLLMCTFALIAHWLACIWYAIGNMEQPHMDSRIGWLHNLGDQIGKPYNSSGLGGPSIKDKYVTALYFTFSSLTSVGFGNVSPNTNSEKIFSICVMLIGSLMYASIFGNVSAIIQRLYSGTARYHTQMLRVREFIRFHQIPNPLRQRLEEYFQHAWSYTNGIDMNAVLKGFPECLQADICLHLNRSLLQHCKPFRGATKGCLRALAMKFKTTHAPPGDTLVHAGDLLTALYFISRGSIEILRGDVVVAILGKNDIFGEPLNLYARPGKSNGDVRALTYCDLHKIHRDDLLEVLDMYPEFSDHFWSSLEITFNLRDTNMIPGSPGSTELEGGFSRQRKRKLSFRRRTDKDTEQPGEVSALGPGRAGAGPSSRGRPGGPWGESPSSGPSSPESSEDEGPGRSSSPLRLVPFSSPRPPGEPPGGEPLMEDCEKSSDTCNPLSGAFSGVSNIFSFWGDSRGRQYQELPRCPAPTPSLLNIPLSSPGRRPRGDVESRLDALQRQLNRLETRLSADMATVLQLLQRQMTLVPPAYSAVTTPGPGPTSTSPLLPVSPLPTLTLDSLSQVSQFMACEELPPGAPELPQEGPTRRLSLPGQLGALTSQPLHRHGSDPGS
T3 sequence (P29274 whole entry): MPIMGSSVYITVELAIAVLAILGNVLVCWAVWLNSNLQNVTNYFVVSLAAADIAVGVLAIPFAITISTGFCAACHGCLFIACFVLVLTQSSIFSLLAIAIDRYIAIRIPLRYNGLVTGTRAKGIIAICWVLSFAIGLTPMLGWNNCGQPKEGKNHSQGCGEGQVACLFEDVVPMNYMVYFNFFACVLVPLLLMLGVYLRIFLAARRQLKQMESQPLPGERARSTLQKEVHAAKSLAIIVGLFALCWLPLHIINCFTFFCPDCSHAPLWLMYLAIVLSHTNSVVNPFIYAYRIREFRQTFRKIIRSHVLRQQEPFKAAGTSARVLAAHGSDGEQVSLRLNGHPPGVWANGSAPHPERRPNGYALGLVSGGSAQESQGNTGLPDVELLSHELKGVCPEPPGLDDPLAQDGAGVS
Description for A2A receptor: (§1) Adenosine A2A receptors and Adenosine A2B receptors induce the production of cAMP when activated/stimulated by an agonist like adenosine or 5′-(N-Ethylcarboxamido) adenosine (NECA). A Time-Resolved Fluorescence Energy Transfer (TR-FRET) assay was used to show the inhibition of this cAMP production in HEK cells upon treatment with compounds of the Formula I of the present disclosure.
(§2) HEK-293 cells expressing A2A receptor (#ES-011-C) or A2B receptor (#ES 013-C) were obtained from PerkinElmer. Cells were maintained in DMEM medium supplemented with 10% FBS and 200 μg/mL of G418 at 37° C. and 5% CO2. The cells were cultured in antibiotic free medium for a period of 16-20 hours prior to the assay. All subsequent steps of the assay are performed at room temperature (22-24° C.). The cells were harvested at about 80% confluency by gentle flushing with PBS, recovered by centrifugation and resuspended in stimulation buffer at the concentration of 5.0×10^6 cells/mL.
(§3) The assays were conducted in a stimulation buffer containing 1×DMEM, 5 mM HEPES, 0.1% BSA stabilizer and 20-30 μM Rolipram. Serial dilutions of compounds were made in stimulation buffer to achieve a final concentration of high micromolar (10 μM to 0.08 nM) in the reaction volume of 10 μL. The total reaction volume was 10 μL (5 μL of cells, 2.5 μL of antagonist and 2.5 μL of agonist). The stimulation was ended, and the reaction completed by adding 5 μL of 4× Eu-cAMP tracer working solution and 5 μL of 4× ULight-anti-cAMP working solution. The TR-FRET signal was measured after 1-hour incubation using a Tecan M1000 reader.
Description for A2B receptor: as §1, §2, §3

For `CCc1c(C)nn2c(N)c(C#N)c(NCCc3ccn(C4(CO)CC4)n3)nc12` [Example 39, 7-amino-3-ethyl-5-((2-(1-(1-(hydroxymethyl)cyclopropyl)-1H-pyrazol-3-yl)ethyl)amino)-2-methylpyrazolo[1,5-a] pyrimidine-6-carbonitrile], the IC50 on A2B receptor is 0.94 nM; on hERG potassium channel it was over 100000 nM; at A2A receptor, 0.23 nM. Besides, the fraction unbound at 18 h, 10 µM in data set [1] was 0.0913. For the same compound, the “Total CLsystemic in plasma” value in data set [2] (Rat, Table 6) was found to be 5.4 L/h/kg. For the same compound, the “Co (head Co*/)” value in data set [2] (Rat, i.v, 15 mg/kg) worked out at 8676 ng/m. For the same compound, the Vd came out at 2.4 L/kg in data set [2] (intravenous, Rat, Table 6) and 2.4 L/kg in data set [2] (iv, Rat, i.v, 15 mg/kg). This compound also showed a clearance in data set [2] (iv, Rat, i.v, 15 mg/kg) of 5.4 ± 0.9 L/h/kg. In addition, the half-life in data set [2] (iv, Rat, i.v, 15 mg/kg, read-out: t1/2 (converted)) was 72 min; in data set [2] (setting [3]) it was 72 min. Also, the Cmax in data set [2] (po, Rat, 100 mg/kg) was 4.1 µg/mL. Further, in data set [2] (po, Rat, 100 mg/kg), the Tmax turned out to be 12 min. The bioavailability in data set [2] (setting [4]) and in data set [2] (setting [5]) was 27% throughout. For the same compound, the “Distribution relative to TBW” value in data set [2] (rats & mice) is given as 2 × TBW. Besides, the “Total CL relative to hepatic clearance” value in data set [2] (rats & mice) was found to be 1.6 ×.
`CCc1c(C)nn2c(N)c(C#N)c(NCCc3ccn(C4COCC4CO)n3)nc12` (single isomer, unassigned; (-)) [Example 122b, (−)-7-amino-3-ethyl-5-((2-(1-(4-(hydroxymethyl)tetrahydrofuran-3-yl)-1H-pyrazol-3-yl)ethyl)amino)-2-methyl pyrazolo[1,5-a]pyrimidine-6-carbonitrile] yielded an IC50 against hERG potassium channel of over 100000 nM. For the same compound, in data set [1], the fraction unbound at 18 h, 10 µM is 0.117. For the same compound, the “Total plasma systemic clearance (CL) relative to hepatic blood flow” value in data set [2] (Rat, IV bolus) was determined as 1.3 ×. Also, in data set [2] (Rat, Table 6), the “Total CLsystemic in plasma” value turned out to be 4.68 L/h/kg. Also, in data set [2] (Rat, i.v, 5 mg/kg), the “Co (head Co*/)” value is given as 4169 ng/m. In addition, the Vd in data set [2] (intravenous, Rat, Table 6) worked out at 1.6 L/kg; in data set [2] (iv, Rat, i.v, 5 mg/kg) it was 1.58 L/kg. In addition, in data set [2] (iv, Rat, i.v, 5 mg/kg), the clearance came to 4.68 ± 1.02 L/h/kg. For the same compound, the half-life in data set [2] (iv, Rat, i.v, 5 mg/kg, read-out: t1/2 (converted)) was 18 min; in data set [2] (setting [3]), 19.8 min. In addition, the Cmax in data set [2] (po, Rat, 30 mg/kg) was 0.983 µg/mL. In addition, the time to peak (Tmax) in data set [2] (po, Rat, 30 mg/kg) was determined as 30 min. In addition, the bioavailability in data set [2] (oral, 30 mg/kg, Rat, oral vs IV bolus, doses per compound, read-out: % F (bioavailability)) came to 21%; in data set [2] (setting [4]), 21%.
As to `Cc1cccc(CCNc2nc3c(C)c(C)nn3c(N)c2C#N)n1` [Example 13, 7-amino-5-((2-(6-methylpyridin-2-yl)ethyl)amino)-2,3-dimethylpyrazolo[1,5-a]pyrimidine-6-carbonitrile], the IC50 is 3.4 nM at A2B receptor, over 100000 nM against hERG potassium channel and 0.25 nM at A2A receptor. Moreover, in data set [1], the fraction unbound at 18 h, 10 µM is 0.05. Besides, the “Total CLsystemic in plasma” value in data set [2] (Rat, Table 6) stood at 4.14 L/h/kg. For the same compound, in data set [2] (Rat, i.v, 3 mg/kg), the “Co (head Co*/)” value is reported as 2242 ng/m. Also, the Vd came out at 1.4 L/kg in data set [2] (intravenous, Rat, Table 6) and 1.4 L/kg in data set [2] (iv, Rat, i.v, 3 mg/kg). In data set [2] (iv, Rat, i.v, 3 mg/kg), this compound came in with a clearance of 4.14 ± 0.54 L/h/kg. Besides, the half-life is 24 min in data set [2] (iv, Rat, i.v, 3 mg/kg, read-out: t1/2 (converted)) and 24.6 min in data set [2] (setting [3]). Besides, the Cmax in data set [2] (po, Rat, 10 mg/kg) was determined as 0.0042 µg/mL. In addition, the Tmax in data set [2] (po, Rat, 10 mg/kg) worked out at 12 min. For the same compound, the bioavailability in data set [2] (setting [4]) was under 1%; in data set [2] (setting [5]) it was under 5%; in data set [2] (po, Rat, oral vs IV bolus, doses per compound, read-out: % F (bioavailability)), under 1%. The “Distribution relative to TBW” value in data set [2] (rats & mice) was found to be 2 × TBW.
